# Where a SMILES comes first, the peptide text is derived from it. Bridges are numbered along the chain shown (N, C = ends).
# Assays:
# [1] = biological target: T1, Bcl-2 (Homo sapiens, UniProt P10415); assay: Surface plasmon resonance (SPR), binding to immobilized Sumo-Bcl-2; settings: for Binding affinity to Bcl-2 (SPR), in words: SPR sensorgrams, peptide 160–2560 nM
# T1 construct: made in house; host or cells: E. coli
# Description: (§1) 1.7 Surface plasmon resonance (SPR) assays
# (§2) SPR assays were performed using a Biacore T200. Target proteins (Sumo-Bcl-2 and […]
# (§3) to reach a target response of 1000 RU. Flow cell Fc3 that was not immobilized with proteins was used as the reference channel. […]
# [2] = biological target: T2, streptavidin (Streptomyces avidinii, UniProt P22629); assay: Surface plasmon resonance (SPR), binding to immobilized streptavidin; settings: SPR sensorgrams, peptide 20–320 nM
# T2 construct: purchased Biosynthesis Biotechnology (Beijing, China)
# Description: as §1, §2, §3
# [3] = test system: chymotrypsin; assay: Proteolytic stability of peptides toward chymotrypsin; assay type: in vitro ADME; settings: 100 μM peptide, phosphate buffer 100 mM pH 7.4, 37 °C, HPLC, 0–180 min
# Description: 1.9 Proteolytic stability of peptides
# 100 μM 15-Ala, 16-Ala, oxidized 15, and oxidized 16 were respectively treated with phosphate buffer (pH = 7.4, 100 mM) containing chymotrypsin at 37 °C . The chymotrypsin concentration used for the digestion of 15 - Ala and oxidized 15 is 0.3 μ g/mL . The chymotrypsin concentration used for the digestion of 16 - Ala and oxidized 16 is 5.0 μ g/mL . At pred e fined time s , 50 μ L aliqu ots were taken with a pipette , quenched with 70 μ L 10% HPO 3 , and analyzed by HPLC. […]
# [4] = Thermal denaturation monitored using circular dichroism; assay type: physicochemical; settings: CD, 50 μM peptide in water, 25–95 °C, ellipticity at 220 nm
# Description: Circular dichroism (CD) spectra were measured using a 1.0 mm path length cuvette at room temperature (25 ℃). All measured peptides were dissolved in water to reach a concentration of 50
# μM. The baseline signal (pure aqueous solution) were subtracted from each spectrum. CD spectra were recorded in a wavelength range of 190 ‒ 260 nm with a bandwidth of 2.0 nm, a date pitch of 1.0 nm, a response time of 8. 0 s, and a scanning speed of 50 nm/min. The thermal denaturation CD spectra were recorded in a temperature range of 25 ‒ 95 ℃ with a heating rate of 10 ℃/min. For temperature melts, the change of ellipticity at 220 nm was monitored as temperature increased f rom 25 to 95 °C in an increment of 10 °C. Other experimental conditions were consistent with those of […]
# [5] = biological target: MDM2 (Homo sapiens, UniProt Q00987); assay: Fluorescence polarization competition assay, binding to MDM2
# Description: 1.6 Fluorescence polarization (FP) assays
# Infinite® 200 PRO Microplate Reader. […]
# data with the single-site binding model. […]
# described above, and fluorescence anisotropies were recorded. The Ki value of the binding between […]
# been described in our previous reports.1,6
# as §1, §2
# MDM2, sequence (Q00987 whole entry, species assumed): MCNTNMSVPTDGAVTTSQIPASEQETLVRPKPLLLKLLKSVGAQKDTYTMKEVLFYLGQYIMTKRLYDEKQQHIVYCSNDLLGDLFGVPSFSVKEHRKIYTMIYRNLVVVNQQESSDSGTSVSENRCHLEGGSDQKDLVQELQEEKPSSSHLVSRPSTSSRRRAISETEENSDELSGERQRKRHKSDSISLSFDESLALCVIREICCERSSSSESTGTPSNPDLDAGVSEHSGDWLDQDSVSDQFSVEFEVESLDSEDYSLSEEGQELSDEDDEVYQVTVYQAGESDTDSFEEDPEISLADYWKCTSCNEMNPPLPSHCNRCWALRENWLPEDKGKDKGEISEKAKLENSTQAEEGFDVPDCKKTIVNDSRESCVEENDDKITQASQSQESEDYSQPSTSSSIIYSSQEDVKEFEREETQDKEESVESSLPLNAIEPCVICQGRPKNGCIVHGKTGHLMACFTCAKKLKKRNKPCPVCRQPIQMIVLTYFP
# T2 sequence (P22629 25-183): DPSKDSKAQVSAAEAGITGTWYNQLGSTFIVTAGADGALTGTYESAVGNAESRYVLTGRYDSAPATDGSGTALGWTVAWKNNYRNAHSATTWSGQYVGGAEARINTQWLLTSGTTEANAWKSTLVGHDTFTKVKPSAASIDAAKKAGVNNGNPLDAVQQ
# T1 sequence (P10415 whole entry, species assumed): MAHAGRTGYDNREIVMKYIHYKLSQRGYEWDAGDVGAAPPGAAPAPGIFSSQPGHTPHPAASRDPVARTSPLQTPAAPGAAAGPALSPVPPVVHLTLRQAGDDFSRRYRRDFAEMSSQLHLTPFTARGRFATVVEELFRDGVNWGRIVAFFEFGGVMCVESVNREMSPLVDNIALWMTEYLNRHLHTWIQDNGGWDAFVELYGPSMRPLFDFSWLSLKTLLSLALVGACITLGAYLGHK
compound,measurement,setting,value
"CC[C@H](C)[C@@H]1NC(=O)[C@@H]2CSSC[C@H](NC(=O)[C@H](CC(C)C)NC(=O)[C@H](CCC(=O)O)NC(=O)[C@@H]3CCCN3C(=O)[C@H](Cc3ccccc3)NC1=O)C(=O)N1CCC[C@H]1C(=O)N[C@@H](Cc1c[nH]c3ccccc13)C(=O)N[C@@H]([C@@H](C)CC)C(=O)N[C@@H](C(C)C)C(=O)N[C@H]1CSSC[C@H](NC(=O)CNC(C)=O)C(=O)N[C@@H](CCC(=O)O)C(=O)N[C@@H](CCCCN)C(=O)N[C@@H](C)C(=O)N[C@@H]([C@@H](C)O)C(=O)N[C@@H](CCC(=O)O)C(=O)N[C@@H](CO)C(=O)N[C@@H](CCC(=O)O)C(=O)N[C@@H](CO)C(=O)N3CCC[C@H]3C(=O)N[C@@H](CSSC[C@@H](C(N)=O)NC1=O)C(=O)N1CCC[C@H]1C(=O)N2 [Oxidized 15] (Ac-GCEKATESESPCPCIFPELCPWIVCC-NH2; disulfide 2-25, 12-26, 14-20)","Binding affinity to Bcl-2 (SPR), in words",[1],no binding affinity
same,"Binding affinity to streptavidin (SPR), in words",[2],no binding affinity
same,Stability toward proteolysis by chymotrypsin compared to linear analog,"[3]; chymotrypsin 0.3 μg/mL, versus 15-Ala",significantly more stable
same,Stability to heat treatment (aggregation),[4],no aggregation was observed
CC[C@H](C)[C@@H]1NC(=O)[C@H](CC(N)=O)NC(=O)[C@H](CCC(=O)O)NC(=O)[C@@H]2CCCN2C(=O)[C@@H]2CSSC[C@H](NC(=O)[C@@H]3CCCN3C(=O)[C@@H]3CSSC[C@@H](C(N)=O)NC(=O)[C@H](CSSC[C@H](NC(=O)CNC(C)=O)C(=O)N[C@@H](CCSC)C(=O)N[C@@H]([C@@H](C)CC)C(=O)N[C@@H](CC(C)C)C(=O)N[C@@H](CC(C)C)C(=O)N[C@@H](CC(=O)O)C(=O)N[C@@H]([C@@H](C)O)C(=O)N[C@@H](CC(=O)O)C(=O)N[C@@H]([C@@H](C)CC)C(=O)N[C@@H](Cc4c[nH]c5ccccc45)C(=O)N3)NC1=O)C(=O)N[C@@H](CO)C(=O)N[C@@H](Cc1c[nH]cn1)C(=O)N1CCC[C@H]1C(=O)N[C@@H](Cc1ccc(O)cc1)C(=O)N[C@@H](C)C(=O)N2 [Oxidized 16],"Binding affinity to MDM2 (FP competition), in words",[5],negligible binding affinity
same,"kd, binding kinetics with Bcl-2 (SPR)","[1]; Biacore T200, 1:1 binding model, peptide 0.16–2.56 μM",0.0498 s⁻¹
same,kon,"[1]; read-out: ka, binding kinetics with Bcl-2 (SPR)",126000 M⁻¹ s⁻¹
same,"Binding affinity to streptavidin (SPR), in words",[2],negligible binding affinity
same,Stability toward proteolysis by chymotrypsin compared to linear analog,"[3]; chymotrypsin 5.0 μg/mL, versus 16-Ala",significantly more stable
same,Stability to heat treatment (aggregation),[4],no aggregation was observed
"CC[C@H](C)[C@@H]1NC(=O)[C@H](Cc2c[nH]c3ccccc23)NC(=O)[C@@H]2CCCN2C(=O)[C@@H]2CSSC[C@H](NC(=O)[C@@H]3CCCN3C(=O)[C@@H]3CSSC[C@@H](C(N)=O)NC(=O)[C@H](CSSC[C@H](NC(C)=O)C(=O)NCC(=O)N[C@@H](CO)C(=O)NCC(=O)N[C@@H](CO)C(=O)NCC(=O)N[C@@H](CO)C(=O)NCC(=O)N[C@@H](CO)C(=O)NCC(=O)N3)NC(=O)[C@H](CCCNC(=N)N)NC1=O)C(=O)N[C@@H]([C@@H](C)CC)C(=O)N[C@@H](Cc1c[nH]c3ccccc13)C(=O)N1CCC[C@H]1C(=O)N[C@@H](CCC(=O)O)C(=O)N[C@@H](CC(C)C)C(=O)N2 [compound 8] (Ac-CGSGSGSGSGCPCIWPELCPWIRCC-NH2; disulfide 1-24, 11-25, 13-19)",Ki,"[5]; PBS pH 7.4, room temperature, peptides HPLC-purified >95%",164 nM
"CSCC[C@@H]1NC(=O)[C@@H]2CCCN2C(=O)[C@@H]2CSSC[C@H](NC(=O)[C@@H]3CCCN3C(=O)[C@@H](NC(=O)[C@H](Cc3ccccc3)NC(=O)[C@@H]3CSSC[C@H](NC(=O)CNC(C)=O)C(=O)NCC(=O)N[C@@H](CO)C(=O)N[C@@H](CC(=O)O)C(=O)N[C@@H](CCC(=O)O)C(=O)N[C@@H](C)C(=O)N3)CSSC[C@@H](C(N)=O)NC(=O)[C@H](Cc3c[nH]cn3)NC(=O)[C@H](CCC(N)=O)NC(=O)[C@H](C)NC1=O)C(=O)N[C@@H](CO)C(=O)N[C@@H](Cc1c[nH]cn1)C(=O)N1CCC[C@H]1C(=O)N[C@@H](CCC(=O)O)C(=O)N[C@@H](CC(N)=O)C(=O)N2 [compound 17] (Ac-GCGSDEACFCPCSHPENCPMAQHC-NH2; disulfide 2-8, 10-24, 12-18)","Binding affinity to MDM2 (FP competition), in words",[5],negligible binding affinity
same,"Binding affinity to Bcl-2 (SPR), in words",[1],negligible binding affinity
"Ac-CGSGSGSGCGCPCIWPELCPWIRSC-NH2 (also: bicyclic or more (positions not given here)) [compound 11, original peptide template of the 11-X14 library]","Binding affinity to streptavidin (SPR), in words",[2],no binding affinity
"Ac-GAMILLDTDIWAPASHPYAAPENIAA-NH2 [16-Ala, linear counterpart (Cys-to-Ala mutant) of 16]","Binding affinity to Bcl-2 (SPR), in words",[1],negligible affinity
